“Also recorded” adds a separate entry of the source. Like-named read-outs stand apart in the source and are kept apart here.
B1: protease-associated domain of vacuolar sorting receptor isoform 1 (VSR1-PA) (domain or fragment, Arabidopsis thaliana, UniProt P93026 20-182, looked up)
chain: RFVVEKNNLKVTSPDSIKGIYECAIGNFGVPQYGGTLVGTVVYPKSNQKACKSYSDFDISFKSKPGRLPTFVLIDRGDCYFTLKAWIAQQAGAAAILVADSKAEPLITMDTPEEDKSDADYLQNITIPSALITKTLGDSIKSALSGGDMVNMKLDWTESVPHP
B2: C-terminal peptide of CRU1 (YRVAAA) (peptide)
peptide: YRVAAA

Tests used:
VSR1-NT [1] = test: Competitive peptide pull-down: elution of Cru1-ctVSD-bound VSR1-NT; design: species or system Arabidopsis thaliana; conditions: 2 mM peptide in VSR binding buffer, 4C, 4 hours, T7 immunoblot
VSR1-PA = conditions: cited from earlier work
VSR1-NT [2] = test: Competitive peptide pull-down: elution of aleurain-ssVSD-bound VSR1-NT; design: species or system Arabidopsis thaliana; conditions: 2 mM peptide in VSR binding buffer, 4C, 4 hours; T7 immunoblot
soybean seeds = conditions: cited from earlier work
VSR1-PA-R95M = test: Thermal shift assay; format: binding, Arabidopsis thaliana; conditions: 5 mM peptide, 50 μM VSR1-PA-R95M, pH 7.1; n = 3; ns P > 0.05
VSR1 = conditions: cited from earlier work
phaseolin = conditions: cited from earlier work
PSV = conditions: C terminus of phaseolin; cited from earlier work
[3] = biological target: B2; test: thermal shift assay
[4] = biological target: B1; test: differential scanning fluorimetry, isothermal analysis
[5] = biological target: B1; test: as above; remark: listed apart in the source
[6] = biological target: B1; test: crystal structure

ADSNPIRPVT [aleurain-ssVSD, reference compound]
Elution of Cru1-ctVSD-bound VSR1-NT (VSR1-NT [1]): not by aleurain-ssVSD
Interaction of VSR1-PA with ssVSD (VSR1-PA): VSR1-PA binds to the residues (ADS) preceding the NPIR motif
Elution of aleurain-ssVSD-bound VSR1-NT (VSR1-NT [2]): eluted

612PLSSILRAFY621
Targeting of GFP to the PSV (soybean seeds): sufficient to target GFP to the PSV in soybean seeds

YRVAAA
Change in Tm of VSR1-PA-R95M (in words) (VSR1-PA-R95M): no significant change in the Tm of VSR1-PA-R95M

SYGRPRVAAAP [Cru1+P]
Elution of Cru1-ctVSD-bound VSR1-NT (VSR1-NT [1]): not by aleurain-ssVSD and Cru1+P
Elution of aleurain-ssVSD-bound VSR1-NT (VSR1-NT [2]): not eluted

SYGRPRVAAA [Cru1]
Elution of Cru1-ctVSD-bound VSR1-NT (VSR1-NT [1]; listed as Cru1-ctVSD): only eluted by ctVSD of CRU1
Binding to VSR1 (VSR1; earlier studies): VSR1 could bind to the C-terminal peptide of CRU1; also recorded: VSR1 can bind to the C-terminal sequence
Calcium dependence of binding to VSR1 (VSR1; pull-down assay): calcium-dependent
Elution of aleurain-ssVSD-bound VSR1-NT (VSR1-NT [2]): eluted

AFVY
Effect of removing the C-terminal residues on phaseolin (phaseolin): abolished aggregation of phaseolin and missorted it to the extracellular space
Targeting of seed proteins to the PSV (PSV): essential for targeting seed proteins to the PSV

B1
increase of Tm [3]: 5.3 °C

B2
Kd [4]: 9.6 mM
Kd [5]: 2.6 mM

YSDRFV [YSDRFV peptide derived from the ctVSD of VL22]
Kd [4]: 3.2 mM
Kd [5]: 1 mM

RVAAA [C-terminal pentapeptide (468RVAAA472) of CRU1]
binding result [6]: binds
